Experimental data: patent US20190201419A1, “COMPOUND AND METHOD FOR THE TREATMENT AND DIAGNOSIS OF NEURODEGENERATIVE CONDITIONS” (Swansea University, priority 2013, published 2019)

Columns and labels:
Lxrβ = target: T1, Lxrβ (Homo sapiens, UniProt P55055); test: Lxrβ luciferase reporter assay in SN4741 neural cells; format: cell-based, mouse; conditions: for Lxr activational capacity in combination with 22R-HC: 10 μM acid + 10 μM 22R-HC; for Lxrβ activation, luciferase activity (fold activation): SN4741 cells, 10 μM, 24 h
T1 construct: expressed in transfected cells; host or cells: SN4741 mouse neuronal cell line
T1 sequence (P55055 1-460): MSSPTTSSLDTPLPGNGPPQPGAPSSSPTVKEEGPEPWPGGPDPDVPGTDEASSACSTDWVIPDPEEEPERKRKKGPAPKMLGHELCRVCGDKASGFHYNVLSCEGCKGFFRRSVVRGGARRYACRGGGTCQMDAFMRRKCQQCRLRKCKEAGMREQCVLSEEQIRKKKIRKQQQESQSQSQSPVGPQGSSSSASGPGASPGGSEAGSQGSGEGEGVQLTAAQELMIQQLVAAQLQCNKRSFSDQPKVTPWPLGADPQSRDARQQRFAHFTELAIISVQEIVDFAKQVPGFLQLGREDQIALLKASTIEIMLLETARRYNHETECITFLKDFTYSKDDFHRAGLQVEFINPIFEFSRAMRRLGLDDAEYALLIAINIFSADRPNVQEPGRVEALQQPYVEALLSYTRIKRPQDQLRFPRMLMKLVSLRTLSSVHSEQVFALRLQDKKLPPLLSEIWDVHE
Text: Luciferase Reporter Assay.

Islet-1 = Islet-1 expression in Tg[Isl1:GFP] zebrafish embryos; format: in vivo; conditions: 10 μM
Experimental: (§1) Quantitative PCR, Total RNA was extracted from SN4741. cells and zebrafish treated with the compounds of interest using the RNeasy Mini Kit (Qiagen), 1 μg was treated with RQ1 RNase-free DNase (Promega) and reverse transcribed using SuperScript II Reverse Transcriptase (invitrogen) and random primers (invitrogen) (RT+reaction). Parallel reactions without reverse transcriptase enzyme were done as a control (RT−reaction), and Sybergreen real-time quantitative PCR assays were performed. Expression levels were obtained by normalization with the Value of the housekeeping gene encoding actin obtained for every sample in parallel assays.
(§2) Zebrafish Strain and Maintenance Zebrafish were raised on a 14/10 h day/night cycle and were kept at 28.5 ° C. Islet-1:GFP transgenic embryos were obtained via natural spawning and staged in hours or days post fertilization (hpf and dpt) according to Kimmel et al). Embryos older than 24 hpf were treated with 0.03% phenylthiourea (PTU) to inhibit pigmentation. MO injections were performed using splice site specific zebrafish lxi MO MO injected embryos were immediately dechorionated and transferred to a 96 well plate and exposed to dimethyl sulfoxide (DMSO) treated or ligand treated medium. Compound Exposure. Islet-1:GFP embryos were collected by natural mating and immediately (at 1 cell stage) dechorionated and transferred to a 96 well plate. Each of the compounds tested were obtained as 10 mM stock and diluted in embryo medium to a final concentration of 10 μM, and 200 μL was added to each well. DMSO or propan-2-ol treated embryo medium was taken as control. Ligand solutions were replaced every 12 h with fresh ligand solution prepared in PTU treated embryo medium. Embryos were collected at 48 hpf, fixed for 4 h at room temperature with 4% paraformaldehyde and then washed and kept in PBST. Immunocytochemistry was performed using an anti-GFP antibody and fluorescence was viewed and photographed using a Zeiss Axioplan compound microscope and a Zeiss Axiocam digital camera.

abca1 = abca1 expression in zebrafish embryos; format: in vivo; conditions: 10 μM
Experimental: as §1
Zebrafish Strain and Maintenance Zebrafish were raised on a 14/10 h day/night cycle and were kept at 28.5 ° C. Islet-1:GFP transgenic embryos were obtained via natural spawning and staged in hours or days post fertilization (hpf and dpt) according to Kimmel et al). Embryos older than 24 hpf were treated with 0.03% phenylthiourea (PTU) to inhibit pigmentation. […] Immunocytochemistry was performed using an anti-GFP antibody and fluorescence was viewed and photographed using a Zeiss Axioplan compound microscope and a Zeiss Axiocam digital camera.

[1] = system: Islet1+ oculomotor neurons; test: In utero injection into the cerebral aqueduct of E11.5 mice; format: in vivo, mouse; conditions: for Number of Islet+ oculomotor neurons in vivo: injected at E11.5, analyzed at E13.5
Text: Animals for in-utero injections and tissue preparation. Female wild-type CD-1 mice ([…]; Charles River Breeding Laboratories) were housed, bred, and treated according to the guidelines of the European Communities Council (directive 86/609/EEC) and the Society for Neuroscience (www.sfr.org/handbook), and all experiments were approved by the local ethical committee. Ethical approval for CD-1 mice experimentation was granted by Stockholm Norra Djurförsökselisks Nämnd number N154/06, N273/11 and N370/09, For embryo analyses, wild type CD-1 mice were mated overnight, and noon of the day the plug was considered E0.5. Embryos were dissected out of the uterine horns in ice-cold PBS, fixed in 4% paraformaldehyde (PFA) for 4 h to overnight, cryoprotected in 15-30% sucrose, frozen in Tissue-Tek Optimum Cutting Temperature (OCT) compound (Sakura Fine-Tek) on dry ice, and stored at −80° C. until use. Serial coronal 14-μm sections of the brain were obtained on a cryostat.
Immunohistochemical analysis of sections. Ten sets of 14 μm serial coronal sections were cut on a cryostat. No. 1 and 6 sets were subjected to immunohistochemistry. Sections were pre-incubated for 1 h in blocking solution followed by incubation at 4° C. overnight with following primary antibodies: anti-TH (1:750, Pel-Freeze), anti-Islet-1 (1:100; Developmental Studies Hybridoma Bank), anti-cleaved caspase-3 (Asp175) (1:100; Cell Signaling Technology). After washing, slides were incubated for 1-2 h at room temperature with the appropriate fluorophore-conjugated (Cy2-, Cy5-, 1:300, Jackson Laboratories; Alexa488-, 555-, and 647-, 1:1000, Invitrogen) secondary antibodies. Confocal pictures were taken with a Zeiss LSM5 Exciter or LSM700 microscope.
In utero intraventricular injections. E11.5 pregnant females were deeply anesthetized using Isofluorane (IsoFlo®, Abbott Labs) and the uterine horns were accessed through an abdominal incision. 1 μL, of the different cholestenoic acids studied (5 mM) or vehicle solution (isopropanol, 50% v/v) was injected into the cerebral aqueduct. […] Embryos were analyzed 48 h later.

zebrafish embryos = test: Survival of transgenic zebrafish embryos on compound exposure; format: in vivo
Experimental: as §2

| Compound | Lxr activational capacity in combination with 22R-HC (Lxrβ) | Lxrβ activation, luciferase activity (fold activation) (Lxrβ) | Islet-1 mRNA and protein level (qPCR, western blot) (Islet-1) | Islet-GFP expression (Islet-1; embryos 48 hpf) | Number of Islet1+ cells in cranial nerves (III, IV, V, VII, X) (Islet-1; embryos 48 hpf) | Islet-GFP levels after lxr morpholino injection (Islet-1; lxr MO vs control scrambled MO) | abca1 expression (abca1) | Effect of co-injection on the reduction of oculomotor neurons by 3β-HCA ([1]; co-injection with 3β-HCA) | Number of Islet+ oculomotor neurons in vivo [1] | Toxic effect on survival of the fish (zebrafish embryos) |
| --- | --- | --- | --- | --- | --- | --- | --- | --- | --- | --- |
| CC(CCC[C@@H](C)[C@H]1CC[C@H]2[C@@H]3[C@H](O)C=C4C[C@@H](O)CC[C@]4(C)[C@H]3CC[C@]12C)C(=O)O (stereo partly drawn) [3β,7α-diHCA, 3β,7α-dihydroxycholest-5-en-26-oic acid] | No additive effect was observed | have the ability to activate both Lxrs | accompanied by an increase in the level of Islet-1 mRNA and protein | increased Islet-GFP expression | had no significant effect on the number of Islet1+cells | lxr MO injections abolished the in vivo increase in Islet-GFP levels | enhanced expression of abca1 | this effect was eliminated by co-injection of 3β,7α-diHCA | an increase in the number of Islet+ oculomotor neurons | – |
| CC(CCC[C@@H](C)[C@H]1CC[C@H]2[C@@H]3CC=C4C[C@@H](O)CC[C@]4(C)[C@H]3CC[C@]12C)C(=O)O (stereo partly drawn) [3β-HCA, 3β-hydroxycholest-5-en-26-oic acid] | No additive effect was observed | activates Lxr | – | – | – | – | – | – | the number of oculomotor neurons was reduced | had a deleterious toxic effect which impaired the survival of the fish |
